From PubChem BioAssay (NCI)
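Briefly, cells in 96-well plates were exposed to five compound concentrations for 48 h, and endpoints were estimated by linear interpolation. GI50 marks 50% less growth. TGI is the concentration that stops growth completely.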 *1 amine or outer side, *2 acyl side, *3 side chain or, on linkers, in order; H or OH if unused. Where a SMILES comes first, the peptide text is derived from it. Bridges are numbered along the chain shown (N, C = ends). Roman numbers before positions name the chains, in order. [ ]: non-standard residue; d: D form. Actinocin(9to1) = Cc1c2oc3c(C)ccc(C(=O)[*:1])c3nc-2c(C(=O)[*:2])c(N)c1=O; NMeV = CN[CH](C(=O)O)C(C)C; Sar = CNCC(=O)O

Columns and labels:
Assay in all cases: growth of human tumour cells (NCI), 48 h
[1] = test system: HS 578T breast
[2] = test system: ACHN renal
[3] = test system: SN12C renal
[4] = test system: HOP-62 NSCLC
[5] = test system: MDA-MB-435
[6] = test system: BT-549 breast
[7] = test system: SF-268 CNS
[8] = test system: NCI-H522 lung
[9] = test system: IGROV1 ovarian
[10] = test system: SW-620 colon

SMILES | TGI [1] [µM] | TGI [2] [µM] | TGI [3] [µM] | TGI [4] [µM] | TGI [5] [µM] | TGI [6] [µM] | TGI [7] [µM] | TGI [8] [µM] | TGI [9] [µM] | TGI [10] [µM] | GI50 [1] [µM] | GI50 [2] [µM] | GI50 [3] [µM] | GI50 [4] [µM] | GI50 [5] [µM] | GI50 [10] [µM] | GI50 [6] [µM] | GI50 [7] [µM] | GI50 [8] [µM] | GI50 [9] [µM]
O=C(CCCCCCCCC(=O)N1C(=O)CC(=O)N(c2cccc(Cl)c2)C1=S)N1C(=O)CC(=O)N(c2cccc(Cl)c2)C1=S | > 100 | > 100 | > 100 | > 100 | > 100 | > 100 | > 100 | 71.1 | – | – | – | – | – | – | – | – | – | – | – | –
COc1ccc(-c2c(N)n(-c3cccc(C(=O)O)c3)c(=O)c3cc([N+](=O)[O-])ccc23)cc1 | > 100 | > 100 | – | > 100 | > 100 | > 100 | > 100 | > 100 | > 100 | > 100 | – | – | – | – | – | – | – | – | – | –
CCOc1nc(-c2ccccc2)cc(-c2ccc(N3CCOCC3)cc2)c1C#N | > 100 | > 100 | > 100 | > 100 | > 100 | > 100 | > 100 | > 100 | > 100 | > 100 | – | – | – | – | – | – | – | – | – | –
C#CC(F)(F)[C@]1(O)CC[C@H]2[C@@H]3CCC4=CC(=O)CCC4=C3[C@@H](c3ccc(C(C)=O)cc3)C[C@@]21C | > 95.2 | 97 | > 95.3 | 73.8 | 52 | 55.2 | > 100 | 0.0331 | – | > 100 | 17 | 10.1 | 25.1 | 18.7 | 13.9 | 24.2 | 15.5 | 0.423 | 0.0167 | –
O=[Se](=O)c1ccccc1.O=[Se](=O)c1ccccc1.[Cu] | – | – | 29.5 | 43.4 | – | – | 33.1 | 31.5 | 37.3 | 33.8 | – | – | 15.8 | 26 | – | 17.5 | – | 17.8 | 17.3 | 18.5
COc1ccc(N=N/C(=N/NC(=O)c2ccccc2)c2ccc(N(CCC#N)CCC#N)cc2C)cc1 | 75.2 | > 100 | > 100 | > 100 | > 100 | > 100 | > 100 | 36.1 | > 100 | – | – | – | – | – | – | – | – | – | – | –
Cc1c2oc3c(C)ccc(C(=O)NC4C(=O)NC(C(C)O)C(=O)N5CCCC5C(=O)N(C)CC(=O)N(C)C(C(C)C)C(=O)OC4C)c3nc-2c(C(=O)NC2C(=O)NC(C(C)O)C(=O)N3CCCC3C(=O)N(C)CC(=O)N(C)C(C(C)C)C(=O)OC2C)c(N)c1=O (configuration not stated) (I: TTP[Sar][NMeV] / II: TTP[Sar][NMeV]; ester I:1-I:C, II:1-II:C; linker I:N-II:N via Actinocin(9to1); configuration not given here) | 72 | 10.9 | > 100 | 10 | 3.81 | 1.03 | > 100 | 1.14 | > 100 | > 100 | – | – | – | – | – | – | – | – | – | –
Oc1ccc(SCc2cc(O)c(O)c(O)c2)cc1 | > 100 | > 100 | 74.9 | 56.4 | > 100 | 85.9 | > 100 | 61.4 | 57.8 | > 100 | – | – | – | – | – | – | – | – | – | –
O=C1NC2(CCCCC2)C2CCCCCC12 (configuration not stated) | – | > 100 | > 100 | > 100 | – | – | > 100 | – | > 100 | > 100 | – | – | – | – | – | – | – | – | – | –
CCOC(=O)CNC(=O)C(C)NC(=O)C(NC(=O)CC(c1ncc[nH]1)c1ncc[nH]1)C(C)CC (configuration not stated) | > 100 | > 100 | > 100 | – | > 100 | – | > 100 | > 100 | > 100 | > 100 | – | – | – | – | – | – | – | – | – | –
COc1cccc(N(CN2CC=CC2=O)C(C)=O)c1 | > 100 | > 100 | > 100 | > 100 | > 100 | – | > 100 | > 100 | > 100 | > 100 | – | – | – | – | – | – | – | – | – | –
Cc1cc(-c2nc3ccccc3s2)ccc1NC(=O)[C@H](C)N | 74.4 | 27.5 | 27.9 | 28.3 | 19.9 | 31.2 | 52.5 | 75.8 | 23.4 | 29 | – | – | – | – | – | – | – | – | – | –
CSC1=C(C#N)C(=O)N(c2ccc(C)cc2)C(=S)C1C#N (configuration not stated) | > 100 | > 100 | > 100 | > 100 | > 100 | > 100 | > 100 | > 100 | > 100 | > 100 | – | – | – | – | – | – | – | – | – | –
N#C[S-].[Nd+3].c1ccc(-c2ccccn2)nc1.c1ccc(-c2ccccn2)nc1.c1ccc(-c2ccccn2)nc1 | – | – | > 100 | – | – | – | – | – | 42.6 | > 100 | – | – | 5.82 | – | – | 5.93 | – | – | – | 11.6
CCc1ccc2[nH]c(O)c(-c3[nH]c4ccccc4c3N=O)c2c1 | 30.5 | 14.7 | 18 | 27.2 | 21.9 | 20.6 | 22.3 | 16 | 18.6 | 89.9 | – | – | – | – | – | – | – | – | – | –
CC(=O)OC(OC(C)=O)n1cc(C=O)c2ccccc21 | > 100 | > 100 | > 100 | > 100 | – | – | – | > 100 | – | > 100 | – | – | – | – | – | – | – | – | – | –
CC[C@H](C)[C@H]1NC(=O)[C@@H](NC(=O)[C@@H](CC(C)C)N(C)CC2CCCN2C(=O)C(C)=O)[C@@H](C)OC(=O)[C@H](Cc2ccc(OC)cc2)N(C)C(=O)C2CCCN2C(=O)[C@H](CC(C)C)NC(=O)[C@@H](C)C(=O)[C@H](C(C)C)OC(=O)C[C@@H]1O (some centres not stated) | 0.0144 | 0.0389 | 0.0301 | 0.00713 | 0.0105 | 0.0135 | 0.0257 | 0.0523 | 0.016 | 1.8 | – | – | – | – | – | – | – | – | – | –
Cc1cccc(C2=NC(C)(C)C(C)(C)N=C2c2cccc(C)n2)n1 | – | > 100 | – | > 100 | – | – | > 100 | > 100 | > 100 | > 100 | – | – | – | – | – | – | – | – | – | –
COC(=O)n1c(=O)n(-c2ccccc2)c(=O)n1C(=O)OC | > 100 | – | > 100 | – | > 100 | > 100 | > 100 | > 100 | > 100 | > 100 | – | – | – | – | – | – | – | – | – | –
O=C1Nc2cc([N+](=O)[O-])ccc2NC1/C(=N\Nc1ccccc1)C(O)c1cccc([N+](=O)[O-])c1 (configuration not stated) | – | > 100 | > 100 | > 100 | – | – | > 100 | > 100 | > 100 | > 100 | – | – | – | – | – | – | – | – | – | –
